Consider 2 substances from patent US20250302862A1, “SMALL RNA DRUG FOR INHIBITING ACTIVITY OF CANCER CELLS” (Institute of Basic Medical Sciences Chinese Academy of …, priority 2022, published 2025).

Common to all, as to assay type: cell-based, human
Data set [1] relates to pancreatic cancer ASPC-1 cells. In words: Cell migration (Transwell). To be noted: 100 nmol/L, jetPRIME, 72 h. The protocol:
(§1) 1) ASPC-1 cells and BXPC-3 cells with a cell density of more than 90% in 10 cm^2 dishes were digested and then resuspended with 1 mL of serum-free medium and counted. 100,000 cells (100 uL) were plated in the upper chamber, and complete medium with 10% FBS was added to the lower chamber of each Transwell chamber. Transfection was performed after 12 h, and the groups (3 wells per group) were divided: • blank control group: 10 uL of jetPRIME Buffer • negative control group (NC group) and experimental group: 10 uL of jetPRIME Buffer was mixed well with 0.5 uL of jetPRIME reagent and 0.5 uL of small RNA and let stand for 15 min, and then was added to each well at a 10 uL system (final concentration 100 nmol/L) • Note: 100 uL of nuclease-free water was added to 2 nmol of small RNA dry powder for dissolution at a storage concentration of 20 umol/L
(§2) After 72 h, the medium in upper and lower chambers was discarded. The cells were fixed with paraformaldehyde at room temperature for 15 min, stained with 0.1% crystal violet at room temperature for 15 min, and rinsed with PBS. The cells in the upper chamber were gently wiped off with cotton swabs, and the chamber was dried. A Leica inverted microscope DMi8 was turned on, the 5× objective lens was selected, the parameters were adjusted and the white balance was performed following the manual. Each chamber was photographed, followed by counting and statistic processing.
as §1, with “divided as follows:” for “divided:”

The subject of data set [2] is pancreatic cancer BXPC-3 cells. Description: Cell migration (Transwell). To be noted: 100 nmol/L, jetPRIME, 72 h. The method, then:
as §1, §2
as §1, with “divided as follows:” for “divided:”

Data set [3] concerns prostate cancer PC-3 cells. Description: Concentration-dependent proliferation inhibition, MTS. To be noted: gradient 0.01-100 noml/L, MTS after 48 h. The protocol:
(§3) 1) Breast cancer MCF7 cells, breast cancer MDA-MB-231 cells, gastric cancer AGS cells, pancreatic cancer HS766T cells, pancreatic cancer ASPC-1 cells, and prostate cancer PC-3 cells with a cell density of more than 90% in 10 cm^2 plates were plated in 96-well according to the cell growth rate. Transfection was performed after 12 h, and the groups (3 wells per group) were divided as follows: • blank control group: 20 uL of opti-MEM • negative control group (NC group) and experimental group: • A. 10 uL of opti-MEM and 0.2 uL of iMax were mixed well for 5 min • B. 10 uL of opti-MEM and small RNA were mixed well (the concentration gradient of experimental group was set as: 0.01 noml/L, 0.03 noml/L, 0.1 noml/L, 0.39 noml/L, 0.78 noml/L, 1.56 noml/L, 3.125 noml/L, 6.25 noml/L, 12.5 noml/L, 25 noml/L, 50 noml/L, 100 noml/L; the final concentration of sRNA in NC group was 100 noml/L) • C. solution A and solution B were mixed well and let stand for 15 min, and then was added at a 20 uL system • Note: 100 uL of nuclease-free water was added to 2 nmol of small RNA dry powder for dissolution at a storage concentration of 20 umol/L
2) Detection of cell viability: MTS detection was performed after 48 h.
Formulation of MTS detection solution was as follows: opti-MEM:MTS A solution:MTS B solution=100:20:1. After removing the supernatant, 100 uL of MTS detection solution was added to each well and incubated for 0.5-2 h. Absorbance values at wavelengths of 490 nm and 630 nm were measured in a microplate reader.
as §3, with “dishes” for “plates”, “96-well plates” for “96-well”

With “MDM-sRNA-39: small RNA derived from Maytenus hookeri, sequence GGGAUUGUAGUUCAAUUGGUCAGAGCACC (listed as RNA, chemistry not given here)”, the cell migration result in data set [1] and in data set [2] was “inhibits” each time. Besides, the “proliferation-inhibiting function (cell activity, MTS)” value in data set [3] was “concentration-dependent”.

For the substance “MDM-sRNA-163: small RNA derived from Maytenus hookeri, sequence UGACUCUAGUCCGACUUUGUGAAAUGACU (listed as RNA, chemistry not given here)”, the cell migration entry in data set [1] and in data set [2] was “inhibits” each time. Further, the “proliferation-inhibiting function (cell activity, MTS)” value in data set [3] is given as “concentration-dependent”.
